The conditions of data set [1]: phenolic group of oleocanthal; carboxylic acid group of ibuprofen and similar NSAIDs; cited from earlier work.
The nature of data set [2]: solubility in fats and oils (stated in the text, no test described). In kind it is physicochemical. The conditions noted are these: "it has been discovered", no data given. The text has this: Traditionally, it has been difficult to administer ibuprofen and other similar NSAIDs transdermally. […] This is particularly problematic for transdermal administration, given the high concentration of lipids in the stratum corneum. Consequently, formulating a transdermal ibuprofen-containing composition that is capable of penetrating through the stratum corneum in effective amounts is difficult.
Without wishing to be bound to any particular theory, it is believed that the ability of oleocanthal to remain in a neutral state over a broad pH range contributes to the ability of oleocanthal to more readily penetrate the stratum corneum, as compared to ibuprofen and similar NSAIDs. […] This is advantageous for transdermal delivery. Since most transdermal compositions are formulated to have a pH of from about 3.5 to about 8.5, and more typically from about 5.0 to about 6.0, oleocanthal will mostly be in its neutral, non-ionized state when the transdermal composition is contacted with skin. In contrast, ibuprofen and similar NSAIDs, which contain a carboxylic acid group that may begin to ionize at a pH of about 4.0, will be all or partly in their ionized state (and thus […]) when the transdermal composition is contacted with skin. Consequently, oleocanthal penetrates the stratum corneum more readily than ibuprofen and other similar NSAIDs.

As to `CC(C)Cc1ccc(C(C)C(=O)O)cc1` (stereo not drawn) [ibuprofen, reference compound], in data set [1], the “pH at which the ionisable group begins to ionize” value is “about 4.0 pH”. As to `C/C=C(/C=O)[C@@H](CC=O)CC(=O)OCCc1ccc(O)cc1` [oleocanthal], the “solubility in fats and oils” value in data set [2] is “highly soluble”. The “pH at which the ionisable group begins to ionize” value in data set [1] was “about 9.5 pH”.

Source of the values: patent US7879344B2, “Transdermal delivery of oleocanthal for relief of inflammation” (Kimberly-Clark Worldwide, Inc., priority 2006, dated 2011).
